# In US8598145B2, “Mitochondrially delivered anti-cancer compounds” (priority 2008, dated 2013):
# Tests used:
# EAhy926 cells [1] = conditions: level taken from Dong et al, Cancer Res 2007; cited from earlier work
# MS cells = test: ROS production by flow cytometry, mammosphere cells (FIG. 8); format: cell-based, human; conditions: 3 h; α-TOS 50 μM, MitoVES homologues 5 μM
# Description: Adherent MCF7 cells and the corresponding mammosphere cells (MS) were cultured and assessed for morphological changes by microscopy (A) and for expression levels of markers as indicators of “sternness” by RT-PCR (B) and flow cytometry (C), including the expression of CD44 and CD24 (D). The adherent MCF7 cells (E) and the MS cells (F) were treated with 5 μM MitoVES, 50 μM α-TOS or 10 μM parthenolide and assessed for their sensitivity to drug induced cell death. […] Adherent MCF7 cells (I) and MS cells (J) were treated for 3 h with α-TOS (50 μM) or MitoVES homologues containing different lengths in the aliphatic side chain (5 μM each, either 11, 7 or 5 carbon chain in length) and the treated cells assessed for production of reactive oxygen species (ROS) by flow cytometry.
# Cellular ROS were detected indirectly by flow cytometry and directly by electron paramagnetic resonance (EPR) spectroscopy, following treatment of cells with α-TOS as indicated in the Legend to Figures. […] For indirect evaluation, cells were treated with α-TOS and reacted with dihydrodichlorofluorescein diacetate (DCF; Molecular Probes) for 30 min, and scored by flow cytometry for cells with high fluorescence, which was evaluated on the bases on increase in mean fluorescence intensity. […]
# T lymphoma cells = conditions: medium pH ~6.2 compared to pH 7.2; cited from earlier work
# malignant cells = test: Apoptosis assays of FIG. 2 (Annexin V method); format: cell-based
# Description: Jurkat (A, G), HCT-116 (B), MCF-7 (C), MDA-MB-453 (D), and Meso-2 cells (E) were exposed to MitoVES at concentrations 1-50 μM (A-F), or to VES4TPP or α-TOS at 50 μM (B). At the times shown, the cells were harvested and assessed for apoptosis. […] Apoptosis data shown are derived from three independent experiments and are presented as mean values±S.D., the micrographs are representative images of at least three independent experiments.
# (§1) Toxicity of α-TOS, VE11S (“VES”), MitoVE3S, MitoVE5S, MitoVE7S, MitoVE9S, MitoVE11S (“MitoVES”), MitoVE11AE (“MitoVEAE”), MitoVE11F (“MitoVEF”), MitoVE11M (“MitoVEM”), and VES4TPP towards cancer cells was assessed on the basis of IC50, as detailed in Turanek, J., et al. ((2008). Liposomal formulation of vitamin E analogs as an efficient and selective anti-cancer treatment. Clin. Cancer Res. (submitted)). […]
# EAhy926 cells [2] = test: Apoptosis in proliferating and arrested endothelial cells (FIG. 6); format: cell-based, human; conditions: EAhy926 at ~50% or 100% confluency
# Description: Parental EAhy926 cells were seeded in 24-well plate so that they would acquire after an overnight recuperation ˜50% or 100% confluency, while their ρ^0 counterparts were seeded at 50% confluency. The proliferating and confluent cells were then exposed to MitoVES at concentrations and for times shown, and assessed for apoptosis level by the Annexin V-binding method (A) and for ROS accumulation using the fluorescent probe DHE (B).
# as §1
Structure (SMILES),concentration needed for comparable levels of effects on endothelial cells (EAhy926 cells [1]),ROS production in MS cells (MS cells),greater apoptogenic efficacy at acidic pH (T lymphoma cells),"apoptosis in malignant versus normal equivalent cell types (malignant cells; FIG. 2, exception dividing endothelial cells)",fold more apoptogenic / more active than α-TOS in cancer cells (malignant cells; relative to α-TOS),apoptosis in proliferating versus arrested endothelial cells (EAhy926 cells [2])
"Cc1c(C)c2c(c(C)c1OC(=O)CCC(=O)O)CC[C@@](C)(CCC[C@H](C)CCC[C@H](C)CCCC(C)C)O2 [α-TOS, α-tocopheryl succinate, reference compound]",25 to 50 µM,much lower levels,~3 times,,,
Cc1c(C)c2c(c(C)c1OC(=O)CCC(=O)[O-])CCC(C)(CCCCCCCCCCC[P+](c1ccccc1)(c1ccccc1)c1ccccc1)O2 (stereo not drawn) [MitoVE11S],,,,causes apoptosis selectively in malignant cells,up to 50 fold,causes apoptosis in proliferating but not arrested endothelial cells
